# According to publication PMC8065212, “The active form of the influenza cap-snatching endonuclease inhibitor baloxavir marboxil is a tight binding inhibitor” (The Journal of Biological Chemistry, 2021):
# Values joined by “and” are separate entries in the source; they are usually repeats but may differ in a detail not shown here. Identical values can stand only once. “Also recorded” adds a separate entry of the source. Like-named read-outs stand apart in the source and are kept apart here.
# Tests used:
# [1] = test system: influenza; conditions: single dose, postexposure prophylaxis; placebo group 13.6%; cited from earlier work
# [2] = test system: influenza infection; conditions: cited from earlier work
# [3] = test system: influenza virus; conditions: cited from earlier work
# [4] = test system: cap-snatching endonuclease (PA); conditions: enzyme concentration not indicated; cited from earlier work
# [5] = test system: FluB-ht WT; assay type: biochemical; conditions: 75 nM BXA
# [6] = test system: FluB-ht WT; assay type: biochemical; conditions: 75 nM BXA, 55 nM FluB-ht WT
# [7] = test system: FluB-ht; assay: Michaelis-Menten kinetics of BXA inhibition; assay type: biochemical, Influenza B; conditions: 25 nM FluB-ht, substrate as indicated
# Description: Supplementary Figure S4. Michaelis-Menten kinetics of BXA inhibition. (A) Scheme detailing the experimental setup and representative data showing the effect of BXA on substrate utilization by FluB-ht. (B) Graphic representation and analysis of the data presented in panel A are shown on the left-hand side graph. The effects of increasing concentrations of BXA on kcat and Km are illustrated on the right-hand side graph. Data represents the average of two independent experiments. The final reaction conditions were as follows: 30 mM Tris-HCL pH 7.5, 25 mM NaCl, 5 mM MgCl2, 25 nM FluB-ht, 1.7 µM vRNA, 5% DMSO, BXA as indicated and 20-nt capped substrate as indicated. The indicated substrate concentrations were achieved by mixing 0.1 µM 20-nt radiolabeled capped substrate RNA with increasing amounts of unlabeled substrate. […] The data point at 2.1 µM was therefore not considered for kcat and Km measurements. […] Tight binding of enzyme and inhibitor depletes the concentration of free enzyme and the steady-state assumption is no longer valid.
# [8] = target: FluB-ht WT (recombinant influenza B heterotrimeric PA/PB1/PB2 polymerase, PA endonuclease) (Influenza B virus, UniProt Q5V8Z9); assay: biochemical
compound,measurement,setting,value
"COC(=O)OCOc1c2n(ccc1=O)N([C@@H]1c3ccccc3SCc3c1ccc(F)c3F)[C@@H]1COCCN1C2=O [BXM, Baloxavir marboxil]",household transmissions,[1],1.9%
same,reduction in time until symptom resolution,"[2]; human, in vivo",20–25%
same,EC50,[3],low nanomolar range
"O=C1c2c(O)c(=O)ccn2N([C@@H]2c3ccccc3SCc3c2ccc(F)c3F)[C@@H]2COCCN12 [BXA, baloxavir acid]",IC50,[4],~2 nM
same,inhibition of endonuclease activity by order of addition,"[5]; 55 nM FluB-ht WT, 1 hour preincubation","inhibition was only observed under conditions where an E:I:Mg^2+ complex was preformed; also recorded: Preincubation E, I, and MgCl2 is required for inhibition"
same,nuclease activity over longer periods of time after preformed E:I:Mg2+ complex,[5]; up to 120 min,negligible
same,preincubation time for maximal inhibition,[6],~30 min
same,effects of increasing concentrations of BXA on kcat and Km,[7],reduction in kcat and constant Km values
same,IC50,[8],112 nM
same,Ki,[8],12 nM
same,dependence of IC50 on substrate concentration,"[8]; 100, 300 and 500 nM 20-nt substrate, 55 nM FluB-ht WT (Fig. S1)",independent within a narrow range of substrate concentrations
same,slope of plot of IC50 versus enzyme concentration,[8]; WT,0.56 and ~0.5
CCOC(=O)C1=C[C@@H](OC(CC)CC)[C@H](NC(C)=O)[C@@H](N)C1 [oseltamivir],reduction in time until symptom resolution,[2],20–25%
